Source: BindingDB's records for doi:10.1021/jm981008a (1998)

How the values were obtained:
[1] = biological target: Sodium-dependent noradrenaline transporter (Homo sapiens, UniProt P23975); experiment: The compound was tested in vitro for binding affinity for the norepinephrine transporter (NET) using competitive binding assay.
[2] = biological target: T1, Sodium-dependent dopamine transporter (Homo sapiens, UniProt Q01959); experiment: The compound was tested in vitro for high binding affinity for the Dopamine transporter (DAT) using competitive binding assay.
T1 sequence (Q01959 whole entry): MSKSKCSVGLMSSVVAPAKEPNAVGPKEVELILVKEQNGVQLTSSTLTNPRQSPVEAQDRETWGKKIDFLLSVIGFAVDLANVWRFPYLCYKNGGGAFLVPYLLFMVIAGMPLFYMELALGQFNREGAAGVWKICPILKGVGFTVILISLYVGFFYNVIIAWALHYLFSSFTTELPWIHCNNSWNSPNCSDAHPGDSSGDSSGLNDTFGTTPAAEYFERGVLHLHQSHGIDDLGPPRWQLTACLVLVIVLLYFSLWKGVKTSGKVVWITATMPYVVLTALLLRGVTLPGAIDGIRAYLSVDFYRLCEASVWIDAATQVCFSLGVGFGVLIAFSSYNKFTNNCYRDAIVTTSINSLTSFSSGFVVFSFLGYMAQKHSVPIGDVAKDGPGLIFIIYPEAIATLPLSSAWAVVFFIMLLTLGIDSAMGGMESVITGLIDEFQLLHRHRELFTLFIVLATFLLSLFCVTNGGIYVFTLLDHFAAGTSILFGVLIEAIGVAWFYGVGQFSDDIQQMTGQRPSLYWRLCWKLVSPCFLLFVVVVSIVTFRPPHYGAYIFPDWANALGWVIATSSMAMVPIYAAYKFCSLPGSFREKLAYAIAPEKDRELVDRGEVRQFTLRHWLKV

[3] = biological target: T1, Sodium-dependent dopamine transporter; experiment: The compound was tested in vitro for low binding affinity for the Dopamine transporter (DAT) using competitive binding assay.
[4] = biological target: Sodium-dependent serotonin transporter (Homo sapiens, UniProt P31645); experiment: The compound was tested in vitro for binding affinity for the serotonin transporter (5-HTT) using competitive binding assay.
Chain of Sodium-dependent serotonin transporter (P31645 whole entry): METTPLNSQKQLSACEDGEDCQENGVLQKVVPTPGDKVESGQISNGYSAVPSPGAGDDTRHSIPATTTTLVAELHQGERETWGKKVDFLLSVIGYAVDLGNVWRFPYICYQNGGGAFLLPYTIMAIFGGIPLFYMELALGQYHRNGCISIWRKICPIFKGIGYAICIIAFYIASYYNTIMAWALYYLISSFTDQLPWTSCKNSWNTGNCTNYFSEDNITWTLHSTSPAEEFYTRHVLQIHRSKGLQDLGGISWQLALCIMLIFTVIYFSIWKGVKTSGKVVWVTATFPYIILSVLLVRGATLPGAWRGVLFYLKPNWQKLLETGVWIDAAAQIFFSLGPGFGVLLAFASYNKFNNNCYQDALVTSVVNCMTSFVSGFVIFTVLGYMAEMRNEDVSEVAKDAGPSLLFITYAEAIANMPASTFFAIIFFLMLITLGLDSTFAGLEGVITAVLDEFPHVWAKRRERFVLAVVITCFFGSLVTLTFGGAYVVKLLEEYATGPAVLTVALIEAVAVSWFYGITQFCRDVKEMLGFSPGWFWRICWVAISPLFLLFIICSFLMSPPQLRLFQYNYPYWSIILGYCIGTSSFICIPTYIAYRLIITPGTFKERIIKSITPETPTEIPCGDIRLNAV

Chain of Sodium-dependent noradrenaline transporter (P23975 whole entry): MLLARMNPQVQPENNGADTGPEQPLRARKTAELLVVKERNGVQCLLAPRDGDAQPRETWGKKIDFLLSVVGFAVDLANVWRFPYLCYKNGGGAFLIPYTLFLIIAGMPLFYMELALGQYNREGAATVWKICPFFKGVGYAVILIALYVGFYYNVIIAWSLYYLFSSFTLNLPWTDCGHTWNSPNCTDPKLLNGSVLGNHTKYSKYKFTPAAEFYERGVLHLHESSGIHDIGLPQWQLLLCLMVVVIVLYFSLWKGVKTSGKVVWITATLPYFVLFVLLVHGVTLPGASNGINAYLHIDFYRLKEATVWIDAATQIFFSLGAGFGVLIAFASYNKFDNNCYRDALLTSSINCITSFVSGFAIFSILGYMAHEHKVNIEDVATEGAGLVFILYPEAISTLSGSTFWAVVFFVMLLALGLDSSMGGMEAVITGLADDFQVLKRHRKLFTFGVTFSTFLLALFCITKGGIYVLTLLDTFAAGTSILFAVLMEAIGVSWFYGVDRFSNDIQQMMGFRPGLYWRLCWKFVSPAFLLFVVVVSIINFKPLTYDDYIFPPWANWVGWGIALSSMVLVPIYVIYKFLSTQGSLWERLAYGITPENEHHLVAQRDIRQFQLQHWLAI

## CN1C2CCC1[C@@H](COC(=O)CC[S+]1CC[S+](C)[Re]1([Br])([CH]=O)([CH]=O)[CH]=O)[C@@H](c1ccc(F)cc1)C2 (some centres undefined) [Rhenium complex of 3-(2-Bromo-2,2,2-triformyl-3-methyl-1lambda*4*,2lambda*6*,3lambda*4*-[1,2,3]dithiolan-1-yl)-propionic acid 3-(4-fluoro-phenyl)-8-methyl-8-aza-bicyclo[3.2.1]oct-2-ylmethyl ester]
[1]
  IC50: 7.3 nM
[2]
  IC50: 0.146 nM
[3]
  IC50: 20 nM
[4]
  IC50: 72 nM
